The NIST ThermoML archive (doi:10.1016/j.jct.2018.10.015)
± gives the expanded uncertainty stated by the source.

Assay: xn = mol fraction of the nth substance listed
Conditions: 101.3 kPa, Liquid; for viscosity: Concentric cylinders viscometry; for mass density: Vibrating tube method

CCn1cc[n+](C)c1C.O=S(=O)([N-]S(=O)(=O)C(F)(F)F)C(F)(F)F + COC(=O)OC
Conditions	mass density [kg/m3]	viscosity [mPa·s]
293.15 K, x1 = 0.099	1189 ± 2.5	1.706 ± 0.022
293.15 K, x1 = 0.1994	1269.4 ± 2.5	3.137 ± 0.04
293.15 K, x1 = 0.298	1325 ± 2.5	5.492 ± 0.069
293.15 K, x1 = 0.4006	1368.1 ± 2.5	9.266 ± 0.12
293.15 K, x1 = 0.5003	1400.9 ± 2.5	14.65 ± 0.18
293.15 K, x1 = 0.5738	1420.8 ± 2.5	20.1 ± 0.25
293.15 K, x1 = 0.6927	1447.3 ± 2.5	31.98 ± 0.4
293.15 K, x1 = 0.8138	1469.2 ± 2.5	49.28 ± 0.61
293.15 K, x1 = 0.8951	1481.5 ± 2.5	64.02 ± 0.8
293.15 K, x1 = 1	1495.8 ± 2.5	89.88 ± 1.3
298.15 K, x1 = 0.099	1183 ± 2.5	1.581 ± 0.02
298.15 K, x1 = 0.1994	1263.8 ± 2.5	2.849 ± 0.035
298.15 K, x1 = 0.298	1319.6 ± 2.5	4.9 ± 0.059
298.15 K, x1 = 0.4006	1362.9 ± 2.5	8.114 ± 0.098
298.15 K, x1 = 0.5003	1395.7 ± 2.5	12.58 ± 0.15
298.15 K, x1 = 0.5738	1415.7 ± 2.5	17.03 ± 0.21
298.15 K, x1 = 0.6927	1442.3 ± 2.5	26.57 ± 0.32
298.15 K, x1 = 0.8138	1464.3 ± 2.5	40.16 ± 0.49
298.15 K, x1 = 0.8951	1476.7 ± 2.5	51.6 ± 0.62
298.15 K, x1 = 1	1491 ± 2.5	71.34 ± 0.92
303.15 K, x1 = 0.099	1177 ± 2.5	1.469 ± 0.019
303.15 K, x1 = 0.1994	1258.1 ± 2.5	2.6 ± 0.032
303.15 K, x1 = 0.298	1314.2 ± 2.5	4.402 ± 0.053
303.15 K, x1 = 0.4006	1357.7 ± 2.5	7.169 ± 0.086
303.15 K, x1 = 0.5003	1390.6 ± 2.5	10.91 ± 0.13
303.15 K, x1 = 0.5738	1410.6 ± 2.5	14.6 ± 0.18
303.15 K, x1 = 0.6927	1437.4 ± 2.5	22.36 ± 0.27
303.15 K, x1 = 0.8138	1459.4 ± 2.5	33.22 ± 0.41
303.15 K, x1 = 0.8951	1471.8 ± 2.5	42.25 ± 0.52
303.15 K, x1 = 1	1486.3 ± 2.5	57.64 ± 0.7
308.15 K, x1 = 0.099	1171 ± 2.5	1.368 ± 0.018
308.15 K, x1 = 0.1994	1252.4 ± 2.5	2.383 ± 0.029
308.15 K, x1 = 0.298	1308.8 ± 2.5	3.98 ± 0.048
308.15 K, x1 = 0.4006	1352.5 ± 2.5	6.384 ± 0.077
308.15 K, x1 = 0.5003	1385.5 ± 2.5	9.555 ± 0.12
308.15 K, x1 = 0.5738	1405.6 ± 2.5	12.64 ± 0.15
308.15 K, x1 = 0.6927	1432.4 ± 2.5	19.05 ± 0.23
308.15 K, x1 = 0.8138	1454.5 ± 2.5	27.85 ± 0.34
308.15 K, x1 = 0.8951	1467 ± 3	35.08 ± 0.43
308.15 K, x1 = 1	1481.5 ± 2.5	47.26 ± 0.58
313.15 K, x1 = 0.099	1164.8 ± 2.5	1.276 ± 0.016
313.15 K, x1 = 0.1994	1246.8 ± 2.5	2.192 ± 0.027
313.15 K, x1 = 0.298	1303.4 ± 2.5	3.619 ± 0.044
313.15 K, x1 = 0.4006	1347.3 ± 2.5	5.728 ± 0.069
313.15 K, x1 = 0.5003	1380.4 ± 2.5	8.44 ± 0.1
313.15 K, x1 = 0.5738	1400.5 ± 2.5	11.05 ± 0.13
313.15 K, x1 = 0.6927	1427.5 ± 2.5	16.38 ± 0.2
313.15 K, x1 = 0.8138	1449.7 ± 2.5	23.62 ± 0.28
313.15 K, x1 = 0.8951	1462.2 ± 2.5	29.48 ± 0.36
313.15 K, x1 = 1	1476.7 ± 2.5	39.24 ± 0.48
318.15 K, x1 = 0.099	1158.7 ± 2.5	1.193 ± 0.015
318.15 K, x1 = 0.1994	1241.2 ± 2.5	2.023 ± 0.025
318.15 K, x1 = 0.298	1298 ± 2.5	3.308 ± 0.04
318.15 K, x1 = 0.4006	1342.1 ± 2.5	5.173 ± 0.062
318.15 K, x1 = 0.5003	1375.3 ± 2.5	7.511 ± 0.09
318.15 K, x1 = 0.5738	1395.5 ± 2.5	9.74 ± 0.12
318.15 K, x1 = 0.6927	1422.6 ± 2.5	14.24 ± 0.17
318.15 K, x1 = 0.8138	1444.8 ± 2.5	20.25 ± 0.24
318.15 K, x1 = 0.8951	1457.4 ± 2.5	25.06 ± 0.3
318.15 K, x1 = 1	1472 ± 2.5	33 ± 0.4
323.15 K, x1 = 0.099	1152.5 ± 2.5	1.114 ± 0.015
323.15 K, x1 = 0.1994	1235.5 ± 2.5	1.87 ± 0.023
323.15 K, x1 = 0.298	1292.7 ± 2.5	3.037 ± 0.037
323.15 K, x1 = 0.4006	1336.9 ± 2.5	4.699 ± 0.056
323.15 K, x1 = 0.5003	1370.2 ± 2.5	6.73 ± 0.08
323.15 K, x1 = 0.5738	1390.5 ± 2.5	8.649 ± 0.1
323.15 K, x1 = 0.6927	1417.6 ± 2.5	12.48 ± 0.15
323.15 K, x1 = 0.8138	1440 ± 2.5	17.52 ± 0.21
323.15 K, x1 = 0.8951	1452.6 ± 2.5	21.53 ± 0.26
323.15 K, x1 = 1	1467.2 ± 2.5	28.05 ± 0.34
328.15 K, x1 = 0.099	1146.3 ± 2.5	1.042 ± 0.014
328.15 K, x1 = 0.1994	1230 ± 2.5	1.737 ± 0.021
328.15 K, x1 = 0.298	1287.3 ± 2.5	2.802 ± 0.034
328.15 K, x1 = 0.4006	1331.7 ± 2.5	4.286 ± 0.051
328.15 K, x1 = 0.5003	1365.2 ± 2.5	6.083 ± 0.072
328.15 K, x1 = 0.5738	1385.5 ± 2.5	7.757 ± 0.092
328.15 K, x1 = 0.6927	1412.7 ± 2.5	11.06 ± 0.13
328.15 K, x1 = 0.8138	1435.1 ± 2.5	15.34 ± 0.18
328.15 K, x1 = 0.8951	1447.8 ± 2.5	18.72 ± 0.22
328.15 K, x1 = 1	1462.4 ± 2.5	24.16 ± 0.29
